The values that follow come from article PMC8414367, “(E)-7-Ethylidene-lithocholic Acid (7-ELCA) Is a Potent Dual Farnesoid X Receptor (FXR) Antagonist and GPBAR1 Agonist Inhibiting FXR-Induced Gene Expression in Hepatocytes and Stimulating Glucagon-like Peptide-1 Secretion From Enteroendocrine Cells” (Frontiers in Pharmacology, 2021).

Like-named read-outs stand apart in the source and are kept apart here.

Data set [1] is described as follows: MTS viability assay. The format is cell-based, murine. The conditions noted are these: mouse, AML12 cells; AML12, 24 h, vehicle = 100%. On the procedure: (§1) The potential cytotoxicity of 7-alkylated chenodeoxycholic acid derivatives were assessed in different human (HepG2, HepaRG and Huh7) and murine (AML12) hepatocyte-derived cell lines. For this purpose, hepatic cells were treated at increasing concentration for 24h and analyzed by MTS viability assay.
(§2) Table S2. Cell viability was determined using the Cell Titer 96 Aqueous One Solution Cell Proliferation Assay (MTS assay) after treatment with test compounds for 24 h in four different hepatic cell lines. Vehicle (0.1% DMSO) and background (10% SDS; v/v, toxic control) controls of cell viability were set to be 100% and 0%, respectively.

The subject of data set [2] is AML12. Description: MTS viability assay. It is filed as cell-based, murine. Particulars: Mus musculus; AML12, 24 h, MTS; read-out: IC50 (µM), cell viability. As to the method:
as §1, §2

In data set [3] the target is T1, human FXR (Homo sapiens, UniProt Q96RI1).
T1 sequence (Q96RI1 1-486): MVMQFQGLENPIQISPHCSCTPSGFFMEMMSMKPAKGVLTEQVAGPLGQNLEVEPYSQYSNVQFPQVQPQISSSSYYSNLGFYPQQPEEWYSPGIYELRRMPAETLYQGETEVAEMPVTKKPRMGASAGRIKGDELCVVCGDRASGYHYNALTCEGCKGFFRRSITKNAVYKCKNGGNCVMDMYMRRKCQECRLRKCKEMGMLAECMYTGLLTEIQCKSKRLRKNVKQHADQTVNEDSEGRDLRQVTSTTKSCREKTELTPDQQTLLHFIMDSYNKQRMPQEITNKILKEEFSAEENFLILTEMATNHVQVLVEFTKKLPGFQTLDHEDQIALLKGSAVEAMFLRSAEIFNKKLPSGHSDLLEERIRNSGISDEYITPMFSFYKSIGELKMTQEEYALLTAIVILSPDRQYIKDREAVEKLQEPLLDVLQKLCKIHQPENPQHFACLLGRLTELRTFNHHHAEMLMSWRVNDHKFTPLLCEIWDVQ
T1 sequence (P19793 1-462 partner): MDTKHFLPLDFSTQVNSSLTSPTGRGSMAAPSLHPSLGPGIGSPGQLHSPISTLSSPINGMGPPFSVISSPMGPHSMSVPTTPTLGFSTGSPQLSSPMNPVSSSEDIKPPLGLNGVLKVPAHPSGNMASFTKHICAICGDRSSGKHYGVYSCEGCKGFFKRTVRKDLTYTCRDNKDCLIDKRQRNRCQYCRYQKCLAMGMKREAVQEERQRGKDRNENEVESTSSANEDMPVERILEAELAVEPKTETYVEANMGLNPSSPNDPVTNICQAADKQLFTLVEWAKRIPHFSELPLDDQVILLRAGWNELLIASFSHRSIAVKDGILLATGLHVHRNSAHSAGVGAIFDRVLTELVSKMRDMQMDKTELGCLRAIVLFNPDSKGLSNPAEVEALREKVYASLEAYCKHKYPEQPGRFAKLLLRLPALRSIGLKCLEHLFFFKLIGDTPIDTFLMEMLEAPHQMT
Description: FXR luciferase reporter gene assay (FXRE-luc) in HepG2 cells, antagonistic mode. The conditions noted are these: for remaining activity at 10 µM / remaining activity at 40 µM: HepG2; for remaining activity at 10 µM: tested compound 10 µM; for remaining activity at 40 µM: tested compound 40 µM, * = significant effect on cellular viability; for capacity to antagonize OCA-stimulated FXR activation (in words): with 1 µM OCA, Figure 3B. The format is cell-based.

The nature of data set [4]: MTS viability assay. The format is cell-based, human. The conditions noted are these: human, vehicle = 100%. As to the method: as §1, §2
For data set [5], the system named is Huh7. Description: MTS viability assay. Particulars: Homo sapiens, Huh-7; Huh7, 24 h, MTS; read-out: IC50 (µM), cell viability. The format is cell-based, human. As to the method:
as §1, §2

Data set [6] deals with HepaRG. Briefly: MTS viability assay. It is filed as cell-based, human. The conditions noted are these: Homo sapiens, 24 h, MTS, read-out: IC50 (µM), cell viability. As to the method:
as §1, §2

The subject of data set [7] is HepG2. Briefly: MTS viability assay. Particulars: Homo sapiens; HepG2, 24 h, MTS; read-out: IC50 (µM), cell viability. It is filed as cell-based, human. As to the method: as §1, §2
Data set [8] deals with T2, GPBAR1 (Homo sapiens, UniProt Q8TDU6).
T2 construct: host or cells: HepG2
T2 sequence (Q8TDU6 1-330): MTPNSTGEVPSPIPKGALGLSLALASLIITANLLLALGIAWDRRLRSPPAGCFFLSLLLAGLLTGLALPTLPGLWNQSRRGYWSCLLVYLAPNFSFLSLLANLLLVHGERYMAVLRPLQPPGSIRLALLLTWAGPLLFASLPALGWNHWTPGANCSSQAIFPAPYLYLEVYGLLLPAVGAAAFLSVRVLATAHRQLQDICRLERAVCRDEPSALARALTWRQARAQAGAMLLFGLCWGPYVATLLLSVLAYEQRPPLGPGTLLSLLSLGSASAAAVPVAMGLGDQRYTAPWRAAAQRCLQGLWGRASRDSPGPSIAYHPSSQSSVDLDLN
Briefly: GPBAR1 CRE-luc luciferase reporter assay in HepG2 cells. The format is cell-based. Particulars: 10 µM, 5 h, LCA 10 µM set as 100%. On the procedure:
(C) Effects of LCA and 7-ELCA (both at 10 µM) on intracellular generation of cAMP in differentiated NCI-H716 cells after 30 min treatment. The increase in cAMP level (ΔcAMP) is presented as the difference between cAMP concertation in the treated sample after subtraction of the cAMP in the nontreated control sample. (D) Concentration-response curves for activation of GPBAR1 by LCA and 7-ELCA. EC50 values were calculated using nonlinear fitting of concentration-response curves. […] GLP-1 was normalized to protein concentration and GPBAR1 mRNA expression to GAPDH mRNA. Data are presented as a fold to control nontreated (NT) samples. Forskolin (FSK, 10 µM) was used as a GPBAR1-independent activator of cAMP production.

Setting [9] is: GW4064 1 µM, read-out: relative response (%) to the model FXR ligand activation (set to be 100%), GW4064 1 µM.
Where [10] appears, read: CDCA 20 µM, read-out: relative response (%) to the model FXR ligand activation (set to be 100%), CDCA 20 µM.

For `C[C@H](CCC(=O)O)[C@H]1CCC2C3C(CC[C@@]21C)[C@@]1(C)CC[C@@H](O)C[C@H]1C[C@@]3(C)O` (stereo partly drawn) [2b, 3α,7α-Dihydroxy-7β-methyl-5β-cholan-24-oic acid], the viability at 24 h, 10 µM came to 108 ± 7.7% in data set [1]; 99.7 ± 1.2% in data set [4] (HepG2 cells, HepG2, 24 h); 119.5 ± 1% in data set [4] (HepaRG cells); 106 ± 5.8% in data set [4] (Huh7 cells, Huh7, 24 h). Besides, the IC50 in data set [2], in data set [5], in data set [6] and in data set [7] was greater than 200 µM throughout. Also, in data set [3] (setting [9]), the remaining activity at 10 µM is 85 ± 7.7%. The remaining activity at 40 µM in data set [3] (setting [10]) worked out at 112 ± 1.6%; in data set [3] (setting [9]), 64.9 ± 5%.
In the case of `C#C[C@@]1(O)C[C@@H]2C[C@H](O)CC[C@]2(C)C2CC[C@@]3(C)C(CC[C@@H]3[C@H](C)CCC(=O)O)C21` (stereo partly drawn) [2e, 3α,7α-Dihydroxy-7β-ethynyl-5β-cholan-24-oic acid], the viability at 24 h, 10 µM is 97.5 ± 6.6% in data set [1]; 96.5 ± 4.1% in data set [4] (HepG2 cells, HepG2, 24 h); 92.9 ± 6.5% in data set [4] (HepaRG cells); 103 ± 4.4% in data set [4] (Huh7 cells, Huh7, 24 h). Moreover, the IC50 in data set [2], in data set [5], in data set [6] and in data set [7] was greater than 200 µM in each case. Further, in data set [8], the “CRE-luc activation compared to LCA (in words)” value is reported as “weak or no ability to act as agonists of GPBAR1”. Also, the remaining activity at 10 µM in data set [3] (setting [9]) came out at 80.3 ± 3.9%. The remaining activity at 40 µM in data set [3] (setting [10]) is 114.8 ± 0.7%; in data set [3] (setting [9]), 64.8 ± 4.9%. The “capacity to antagonize OCA-stimulated FXR activation (in words)” value (“capacity” for short) in data set [3] is recorded as “only minor antagonist activity”.
Turning to `CC[C@@]1(O)C[C@@H]2C[C@H](O)CC[C@]2(C)C2CC[C@@]3(C)C(CC[C@@H]3[C@H](C)CCC(=O)O)C21` (stereo partly drawn) [2c, 3α,7α-Dihydroxy-7β-ethyl-5β-cholan-24-oic acid], the viability at 24 h, 10 µM in data set [1] amounted to 105 ± 2%; in data set [4] (HepG2 cells, HepG2, 24 h) it was 100 ± 3.9%; in data set [4] (HepaRG cells), 117 ± 1.3%; in data set [4] (Huh7 cells, Huh7, 24 h), 113 ± 4.8%. Also, the IC50 in data set [2], in data set [5], in data set [6] and in data set [7] was greater than 200 µM throughout. The remaining activity at 10 µM in data set [3] (setting [9]) was determined as 89 ± 6%. The remaining activity at 40 µM in data set [3] (setting [10]) turned out to be 67.1 ± 9.2%; in data set [3] (setting [9]), 75.3 ± 2.5%.
`C=C[C@@]1(O)C[C@@H]2C[C@H](O)CC[C@]2(C)C2CC[C@@]3(C)C(CC[C@@H]3[C@H](C)CCC(=O)O)C21` (stereo partly drawn) [2d, 3α,7α-Dihydroxy-7β-vinyl-5β-cholan-24-oic acid]: the viability at 24 h, 10 µM amounted to 106 ± 3.9% in data set [1]; 95.9 ± 8.3% in data set [4] (HepG2 cells, HepG2, 24 h); 104 ± 2.4% in data set [4] (HepaRG cells); 117 ± 5.6% in data set [4] (Huh7 cells, Huh7, 24 h). The IC50 was greater than 200 µM in data set [2], greater than 100 µM in data set [5], greater than 200 µM in data set [6] and 168.8 ± 1 µM in data set [7]. In addition, in data set [3] (setting [9]), the remaining activity at 10 µM amounted to 93.9 ± 6.6%. For the same compound, the figures for the remaining activity at 40 µM in data set [3] (setting [10]) and in data set [3] (setting [9]) were 80.2 ± 0.4% and 75.2 ± 4.6%, respectively. The “capacity” value in data set [3] is “maintained”.
Regarding `C=CC[C@@]1(O)C[C@@H]2C[C@H](O)CC[C@]2(C)C2CC[C@@]3(C)C(CC[C@@H]3[C@H](C)CCC(=O)O)C21` (stereo partly drawn) [2g, 3α,7α-Dihydroxy-7β-allyl-5β-cholan-24-oic acid], the viability at 24 h, 10 µM is 109 ± 3.2% in data set [1]; 97.7 ± 9.1% in data set [4] (HepG2 cells, HepG2, 24 h); 126 ± 4.5% in data set [4] (HepaRG cells); 93.5 ± 10% in data set [4] (Huh7 cells, Huh7, 24 h). Besides, the IC50 in data set [2] was 161 µM; in data set [5], greater than 100 µM; in data set [6], greater than 200 µM; in data set [7], 162 ± 2.1 µM. For the same compound, the “CRE-luc activation compared to LCA (in words)” value in data set [8] is “comparable activities to LCA”. The remaining activity at 10 µM in data set [3] (setting [9]) was determined as 93.2 ± 0.6%. For the same compound, the remaining activity at 40 µM came to 107.2 ± 0.3% in data set [3] (setting [10]) and 74.4 ± 4.4% in data set [3] (setting [9]). For the same compound, the “capacity” value in data set [3] was “maintained”.
For `C=CCCC[C@@]1(O)C[C@@H]2C[C@H](O)CC[C@]2(C)C2CC[C@@]3(C)C(CC[C@@H]3[C@H](C)CCC(=O)O)C21` (stereo partly drawn) [2j, 3α,7α-Dihydroxy-7β-(pent-4-en)-5β-cholan-24-oic acid], the viability at 24 h, 10 µM in data set [1] is 127 ± 7.1%; in data set [4] (HepG2 cells, HepG2, 24 h), 87.8 ± 6.7%; in data set [4] (HepaRG cells) it was 93.1 ± 4.4%; in data set [4] (Huh7 cells, Huh7, 24 h), 114 ± 7%. For the same compound, the IC50 in data set [2] worked out at 75 µM; in data set [5], 34 ± 1.5 µM; in data set [6], 76.5 µM; in data set [7], 77.3 ± 1.2 µM. Besides, in data set [8], the “CRE-luc activation compared to LCA (in words)” value is listed as “weak or no ability to act as agonists of GPBAR1”. In data set [3] (setting [9]), the remaining activity at 10 µM stood at 93.6 ± 2.8%. In addition, the “capacity” value in data set [3] is given as “maintained”.
